From the OligoGym collection
HELM strings list units from the 5' end as sugar, base in round brackets, then linkage (d deoxyribose, r ribose, m 2'-O-methyl, p phosphodiester). Strings are as the collection lists them; they lack the last nucleoside at the 3' end of the tested compound. [moe] = 2'-O-(2-methoxyethyl) (MOE); [sp] = phosphorothioate linkage; [m5C] = 5-methylcytosine

Biological target: C9ORF72
Test: mouse, dose not given
Settings: ASO

| Substance | 3 h FOB score |
| --- | --- |
| RNA1{[moe]([m5C])[sp].[moe]([m5C])[sp].[moe]([m5C])[sp].[moe](G)[sp].[moe](G)[sp].d([m5C])[sp].d([m5C])[sp].d([m5C])[sp].d([m5C])[sp].d(T)[sp].d(A)[sp].d(G)[sp].d([m5C])[sp].d(G)[sp].d([m5C])[sp].[moe](G)[sp].[moe]([m5C])[sp].[moe](G)[sp].[moe](A)}$$$$ (last 3' nucleoside missing) | 6 score 0-7 |
| RNA1{[moe](G)[sp].[moe](G)[sp].[moe](T)[sp].[moe](A)[sp].[moe](A)[sp].d([m5C])[sp].d(T)[sp].d(T)[sp].d([m5C])[sp].d(A)[sp].d(A)[sp].d(A)[sp].d([m5C])[sp].d(T)[sp].d([m5C])[sp].[moe](T)[sp].[moe](T)[sp].[moe](G)[sp].[moe](G)}$$$$ (last 3' nucleoside missing) | 7 score 0-7 |
| RNA1{[moe](G)[sp].[moe](G)p.[moe]([m5C])p.[moe](T)p.[moe](G)p.[moe]([m5C])[sp].d(G)[sp].d(G)[sp].d(T)[sp].d(T)[sp].d(G)[sp].d(T)[sp].d(T)[sp].d(T)[sp].[moe]([m5C])p.[moe]([m5C])[sp].[moe]([m5C])}$$$$ (last 3' nucleoside missing) | 2.5 score 0-7 |
| RNA1{[moe]([m5C])[sp].[moe]([m5C])p.[moe](G)p.[moe](G)p.[moe]([m5C])p.[moe]([m5C])p.d([m5C])[sp].d([m5C])[sp].d(T)[sp].d(A)[sp].d(G)[sp].d([m5C])[sp].d(G)[sp].d([m5C])[sp].d(G)[sp].[moe]([m5C])p.[moe](G)[sp].[moe](A)}$$$$ (last 3' nucleoside missing) | 5.75 score 0-7 |
| RNA1{[moe]([m5C])[sp].[moe](A)p.[moe](G)p.[moe](G)p.[moe]([m5C])p.d(T)[sp].d(G)[sp].d([m5C])[sp].d(G)[sp].d(G)[sp].d(T)[sp].d(T)[sp].d(G)[sp].d(T)[sp].[moe](T)p.[moe](T)p.[moe]([m5C])[sp].[moe]([m5C])}$$$$ (last 3' nucleoside missing) | 5 score 0-7 |
| RNA1{[moe](G)[sp].[moe]([m5C])p.[moe]([m5C])p.[moe](T)[sp].d(T)[sp].d(A)[sp].d([m5C])[sp].d(T)[sp].d([m5C])[sp].d(T)[sp].d(A)[sp].d(G)[sp].[moe](G)p.[moe](A)p.[moe]([m5C])p.[moe]([m5C])[sp].[moe](A)}$$$$ (last 3' nucleoside missing) | 0.25 score 0-7 |
| RNA1{[moe](T)[sp].[moe](G)p.[moe](G)p.[moe](T)p.[moe](T)p.[moe](A)p.d(A)[sp].d(T)[sp].d([m5C])[sp].d(T)[sp].d(T)[sp].d(T)[sp].d(A)[sp].d(T)[sp].d([m5C])[sp].d(A)[sp].[moe](G)p.[moe](G)[sp].[moe](T)}$$$$ (last 3' nucleoside missing) | 1 score 0-7 |
| RNA1{[moe]([m5C])[sp].[moe](A)p.[moe](G)p.[moe](G)[sp].d([m5C])[sp].d(T)[sp].d(G)[sp].d([m5C])[sp].d(G)[sp].d(G)[sp].d(T)[sp].d(T)[sp].[moe](G)p.[moe](T)p.[moe](T)p.[moe](T)[sp].[moe]([m5C])}$$$$ (last 3' nucleoside missing) | 3.5 score 0-7 |
| RNA1{[moe](G)[sp].[moe]([m5C])p.[moe]([m5C])p.[moe](T)p.[moe](T)p.[moe](A)[sp].d([m5C])[sp].d(T)[sp].d([m5C])[sp].d(T)[sp].d(A)[sp].d(G)[sp].d(G)[sp].d(A)[sp].[moe]([m5C])p.[moe]([m5C])[sp].[moe](A)}$$$$ (last 3' nucleoside missing) | 1 score 0-7 |
| RNA1{[moe](G)[sp].[moe](G)p.[moe]([m5C])p.[moe]([m5C])p.[moe]([m5C])p.[moe]([m5C])[sp].d(T)[sp].d(A)[sp].d(G)[sp].d([m5C])[sp].d(G)[sp].d([m5C])[sp].d(G)[sp].d([m5C])[sp].[moe](G)p.[moe](A)[sp].[moe]([m5C])}$$$$ (last 3' nucleoside missing) | 3.25 score 0-7 |
| RNA1{[moe](G)[sp].[moe](G)p.[moe]([m5C])p.[moe](T)p.[moe](G)p.[moe]([m5C])p.d(G)[sp].d(G)[sp].d(T)[sp].d(T)[sp].d(G)[sp].d(T)[sp].d(T)[sp].d(T)[sp].d([m5C])[sp].[moe]([m5C])p.[moe]([m5C])[sp].[moe](T)}$$$$ (last 3' nucleoside missing) | 5.25 score 0-7 |
| RNA1{[moe](T)[sp].[moe]([m5C])p.[moe](T)[sp].d(G)[sp].d(T)[sp].d([m5C])[sp].d(T)[sp].d(T)[sp].d(T)[sp].d(G)[sp].d(G)[sp].[moe](A)p.[moe](G)p.[moe]([m5C])p.[moe]([m5C])p.[moe]([m5C])[sp].[moe](A)}$$$$ (last 3' nucleoside missing) | 4 score 0-7 |
| RNA1{[moe](G)[sp].[moe]([m5C])p.[moe]([m5C])p.[moe]([m5C])p.d([m5C])[sp].d(T)[sp].d(A)[sp].d(G)[sp].d([m5C])[sp].d(G)[sp].d([m5C])[sp].d(G)[sp].d([m5C])[sp].d(G)[sp].[moe](A)p.[moe]([m5C])p.[moe](T)p.[moe]([m5C])[sp].[moe]([m5C])}$$$$ (last 3' nucleoside missing) | 1.25 score 0-7 |
| RNA1{[moe]([m5C])[sp].[moe]([m5C])p.[moe](T)p.[moe](A)[sp].d(G)[sp].d([m5C])[sp].d(G)[sp].d([m5C])[sp].d(G)[sp].d([m5C])[sp].d(G)[sp].d(A)[sp].[moe]([m5C])p.[moe](T)p.[moe]([m5C])p.[moe]([m5C])[sp].[moe](T)}$$$$ (last 3' nucleoside missing) | 3 score 0-7 |
| RNA1{[moe]([m5C])[sp].[moe](T)p.[moe](A)p.[moe](G)[sp].d([m5C])[sp].d(G)[sp].d([m5C])[sp].d(G)[sp].d([m5C])[sp].d(G)[sp].d(A)[sp].d([m5C])[sp].[moe](T)p.[moe]([m5C])p.[moe]([m5C])p.[moe](T)[sp].[moe](G)}$$$$ (last 3' nucleoside missing) | 3.25 score 0-7 |
| RNA1{[moe](T)[sp].[moe]([m5C])p.[moe](T)p.[moe](G)p.[moe](T)p.[moe]([m5C])p.[moe](T)p.d(T)[sp].d(T)[sp].d(G)[sp].d(G)[sp].d(A)[sp].d(G)[sp].d([m5C])[sp].d([m5C])[sp].d([m5C])[sp].d(A)[sp].[moe](A)[sp].[moe](A)}$$$$ (last 3' nucleoside missing) | 2 score 0-7 |
| RNA1{[moe](G)[sp].[moe](G)p.[moe]([m5C])p.[moe](T)p.[moe](G)p.d([m5C])[sp].d(G)[sp].d(G)[sp].d(T)[sp].d(T)[sp].d(G)[sp].d(T)[sp].d(T)[sp].d(T)[sp].[moe]([m5C])p.[moe]([m5C])p.[moe]([m5C])[sp].[moe](T)}$$$$ (last 3' nucleoside missing) | 5.5 score 0-7 |
| RNA1{[moe]([m5C])[sp].[moe](T)p.[moe](G)p.d(G)[sp].d(T)[sp].d(T)[sp].d(A)[sp].d(A)[sp].d(T)[sp].d([m5C])[sp].d(T)[sp].d(T)[sp].d(T)[sp].[moe](A)p.[moe](T)p.[moe]([m5C])p.[moe](A)p.[moe](G)[sp].[moe](G)}$$$$ (last 3' nucleoside missing) | 0 score 0-7 |
| RNA1{[moe]([m5C])[sp].[moe](A)p.[moe](G)p.[moe](G)p.d([m5C])[sp].d(T)[sp].d(G)[sp].d([m5C])[sp].d(G)[sp].d(G)[sp].d(T)[sp].d(T)[sp].d(G)[sp].[moe](T)p.[moe](T)p.[moe](T)p.[moe]([m5C])[sp].[moe]([m5C])}$$$$ (last 3' nucleoside missing) | 4 score 0-7 |
